Patent publication US20240400542A1 (University of Virginia Patent Foundation, priority 2021, published 2024)

Key:
Assay in all cases: SILAC competitive chemical proteomic assay (TH211 probe, LC-MS/MS)
PFKL = target: T1, PFKL (Homo sapiens, UniProt P17858); type: cell-based
T1 construct: endogenous in cells; host or cells: HEK293T
T1 sequence (P17858 1-780): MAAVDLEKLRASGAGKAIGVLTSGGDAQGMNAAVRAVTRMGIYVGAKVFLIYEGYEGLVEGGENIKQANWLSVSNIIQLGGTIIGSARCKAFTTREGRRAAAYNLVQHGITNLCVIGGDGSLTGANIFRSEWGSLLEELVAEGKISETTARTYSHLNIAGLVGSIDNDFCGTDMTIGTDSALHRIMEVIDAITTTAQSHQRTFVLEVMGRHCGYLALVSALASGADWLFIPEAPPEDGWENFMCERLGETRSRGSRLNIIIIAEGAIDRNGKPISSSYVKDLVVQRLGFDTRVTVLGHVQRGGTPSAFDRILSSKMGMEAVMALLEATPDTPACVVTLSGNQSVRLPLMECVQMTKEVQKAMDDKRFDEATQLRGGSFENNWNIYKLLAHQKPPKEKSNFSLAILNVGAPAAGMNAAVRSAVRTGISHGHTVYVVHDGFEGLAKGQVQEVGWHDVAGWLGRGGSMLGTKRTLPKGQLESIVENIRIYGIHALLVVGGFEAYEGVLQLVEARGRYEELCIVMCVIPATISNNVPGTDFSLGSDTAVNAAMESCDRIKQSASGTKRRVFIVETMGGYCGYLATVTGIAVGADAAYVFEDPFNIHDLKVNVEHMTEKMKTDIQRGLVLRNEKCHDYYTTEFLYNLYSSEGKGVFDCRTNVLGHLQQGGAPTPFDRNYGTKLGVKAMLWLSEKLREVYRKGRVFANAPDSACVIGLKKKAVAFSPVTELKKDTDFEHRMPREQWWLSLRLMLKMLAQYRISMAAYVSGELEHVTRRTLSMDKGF
Description: (§1) The light and heavy proteomes (2.3 mg/mL, 432 μL) prepared from HEK293T cells that were pretreated in situ with vehicle (DMSO) or the inhibitor (2 μM), respectively, at 37° C. for 1 hr followed by probe TH211 treatment (50 μM) for 2 h, were directly were subjected to click reaction with the desthiobiotin-PEG3-azide (10 mM in DMSO, 10 μL, final concentration 200 μM) in the presence of TCEP (50 mM, 10 μL), TBTA (1.7 mM, 33 μL) and CuSO4 (50 mM, 10 μL) at room temperature for 1 hr. The light and the heavy samples were mixed in the chloroform-methanol extraction step. The subsequent steps including reduction with dithiothreitol, alkylation with iodoacetamide, digestion with Trypsin/Lys-C, enrichment with avidin beads were conducted as previously described^26.
Some SuTEx analogues with RF001 fragment were synthesized and characterized. The in situ competition assay was then conducted, during which HEK293T cells were treated with 1 μM of a SuTEx analogue for 1 h, followed by treatment with 25 μM of TH211 as the probe for 2 h. […] The analogues with electron-donating groups like methyl or methoxy on the para position of phenyl performed better than those with electron-withdrawing groups. Under the same condition, the IC5o of TH220 was determined as 305.6 nM. The identity of the bound protein was studied by LC-MS/MS. The assay results indicated PFKL as the potential target and that binding sites include Y674 and K677, since the ratio trends are the same as that found in the in situ competition assay. To study selective targeting of PFKL by the series of SuTEx analogues, Fag-PFKL, Flag-PFKM, and Flag-PFKP were overexpressed in HEK293T cells and in vitro competition assays were performed for comparison. […] To optimize these SuTEx ligands, another series of derivatives were synthesized and evaluated with TH233 as a negative control and TH220 as positive control, respectively. […] Compared to TH220, the probinding activity of XJ-2-103 with trifluoromethyl group at para position of the phenyl ring is not as good, which is consistent with the results shown in FIG. 18A.

Isoleucine tRNA ligase = target: T2, Isoleucine tRNA ligase (Homo sapiens, UniProt Q9NSE4); type: cell-based; conditions: TH207 inhibitor; HEK293T soluble fraction; Q9NSE4.2 tyrosine 260
T2 construct: endogenous in cells; host or cells: HEK293T
T2 sequence (Q9NSE4 49-1012): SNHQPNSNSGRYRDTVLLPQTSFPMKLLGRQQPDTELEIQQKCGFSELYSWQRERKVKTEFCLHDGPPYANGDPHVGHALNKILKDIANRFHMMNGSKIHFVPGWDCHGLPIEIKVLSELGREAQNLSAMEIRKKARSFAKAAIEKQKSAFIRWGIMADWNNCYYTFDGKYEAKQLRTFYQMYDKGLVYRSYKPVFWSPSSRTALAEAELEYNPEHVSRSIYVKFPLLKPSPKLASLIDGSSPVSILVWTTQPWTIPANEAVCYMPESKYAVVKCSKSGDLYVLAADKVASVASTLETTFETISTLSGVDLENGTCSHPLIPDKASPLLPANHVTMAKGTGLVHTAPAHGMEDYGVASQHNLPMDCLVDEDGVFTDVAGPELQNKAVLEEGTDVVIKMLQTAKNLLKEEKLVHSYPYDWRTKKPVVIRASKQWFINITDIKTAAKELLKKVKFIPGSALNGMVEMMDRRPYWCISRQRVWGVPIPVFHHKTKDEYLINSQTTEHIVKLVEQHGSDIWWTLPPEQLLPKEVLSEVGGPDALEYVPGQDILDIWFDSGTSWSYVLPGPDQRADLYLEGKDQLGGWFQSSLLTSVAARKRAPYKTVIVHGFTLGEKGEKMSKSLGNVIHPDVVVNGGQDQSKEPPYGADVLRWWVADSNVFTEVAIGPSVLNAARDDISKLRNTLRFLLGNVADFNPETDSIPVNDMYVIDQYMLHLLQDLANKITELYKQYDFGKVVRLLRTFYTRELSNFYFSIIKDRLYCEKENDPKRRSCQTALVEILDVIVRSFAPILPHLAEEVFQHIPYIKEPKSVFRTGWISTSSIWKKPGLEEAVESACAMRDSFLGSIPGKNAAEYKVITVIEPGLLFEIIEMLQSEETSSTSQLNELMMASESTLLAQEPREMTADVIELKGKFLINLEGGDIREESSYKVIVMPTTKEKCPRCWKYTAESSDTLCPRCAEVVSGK
Description: as §1

Major capsid protein VP1 = type: cell-based; conditions: TH207 inhibitor; HEK293T soluble fraction; Q98WD1 lysine 235
Description: as §1

[1] = test system: Heat shock protein HSP 90-beta; type: cell-based, human; conditions: TH207 inhibitor; HEK293T soluble fraction; tyrosine 61
Description: as §1

Cc1ccc(S(=O)(=O)n2cc(CCN3CCC(=C(c4ccc(F)cc4)c4ccc(F)cc4)CC3)nn2)cc1 [TH207, 4-(Bis(4-fluorophenyl)methylene)-1-(2-(1-tosyl-1H-1,2,3-triazol-4-yl)ethyl)piperidine]
SILAC ratios (SR) from competitive chemical proteomic assay (PFKL; HEK293T in situ, vehicle (light) vs inhibitor 2 μM (heavy) 1 hr, then TH211 50 μM 2 h, protein/site not given): 3.41
Normalized SILAC ratio (SR), PFKL K677 (PFKL; TH207 inhibitor, HEK293T soluble fraction, P17858.6 lysine 677): 2.7
Normalized SILAC ratio (SR), PFKL Y674 (PFKL; TH207 inhibitor, HEK293T soluble fraction, P17858.6 tyrosine 674): 2.7
Normalized SILAC ratio (SR), Isoleucine tRNA ligase Y260 (Isoleucine tRNA ligase): 1.8
Normalized SILAC ratio (SR), Major capsid protein VP1 K235 (Major capsid protein VP1): 1.3
Normalized SILAC ratio (SR), Heat shock protein HSP 90-beta Y61 [1]: 1.5
